From publication PMC4775997, “Imidazopyridazine Inhibitors of Plasmodium falciparum Calcium-Dependent Protein Kinase 1 Also Target Cyclic GMP-Dependent Protein Kinase and Heat Shock Protein 90 To Kill the Parasite at Different Stages of Intracellular Development” (Antimicrobial Agents and Chemotherapy, 2016)
Read-outs that look alike come from different tables or passages of the source.

Legend:
P. falciparum 3D7 [1] = assay: SYBR green I growth assay, wild-type parasites; assay type: cell-based, Plasmodium falciparum; settings: Plasmodium falciparum
PfPKG = molecular target: T1, PfPKG (Plasmodium falciparum, UniProt Q8I719); assay: Microfluidic fluorescent shift assay of cGMP-dependent protein kinase activity; assay type: biochemical
T1 construct: plasmids (pTrcHisC) encoding full-length PfPKG and PfPKG T618Q with N-terminal His tags; His tag (N); made in house; host or cells: E. coli Rosetta2(DE3)

PfPKG T618Q = molecular target: T2, PfPKG T618Q (Plasmodium falciparum, UniProt Q8I719, T618Q); assay: biochemical; assay type: biochemical
T2 construct: plasmids (pTrcHisC) encoding full-length PfPKG and PfPKG T618Q with N-terminal His tags; His tag (N); made in house; host or cells: E. coli Rosetta2(DE3)
T2 sequence (Q8I719 whole entry T618Q): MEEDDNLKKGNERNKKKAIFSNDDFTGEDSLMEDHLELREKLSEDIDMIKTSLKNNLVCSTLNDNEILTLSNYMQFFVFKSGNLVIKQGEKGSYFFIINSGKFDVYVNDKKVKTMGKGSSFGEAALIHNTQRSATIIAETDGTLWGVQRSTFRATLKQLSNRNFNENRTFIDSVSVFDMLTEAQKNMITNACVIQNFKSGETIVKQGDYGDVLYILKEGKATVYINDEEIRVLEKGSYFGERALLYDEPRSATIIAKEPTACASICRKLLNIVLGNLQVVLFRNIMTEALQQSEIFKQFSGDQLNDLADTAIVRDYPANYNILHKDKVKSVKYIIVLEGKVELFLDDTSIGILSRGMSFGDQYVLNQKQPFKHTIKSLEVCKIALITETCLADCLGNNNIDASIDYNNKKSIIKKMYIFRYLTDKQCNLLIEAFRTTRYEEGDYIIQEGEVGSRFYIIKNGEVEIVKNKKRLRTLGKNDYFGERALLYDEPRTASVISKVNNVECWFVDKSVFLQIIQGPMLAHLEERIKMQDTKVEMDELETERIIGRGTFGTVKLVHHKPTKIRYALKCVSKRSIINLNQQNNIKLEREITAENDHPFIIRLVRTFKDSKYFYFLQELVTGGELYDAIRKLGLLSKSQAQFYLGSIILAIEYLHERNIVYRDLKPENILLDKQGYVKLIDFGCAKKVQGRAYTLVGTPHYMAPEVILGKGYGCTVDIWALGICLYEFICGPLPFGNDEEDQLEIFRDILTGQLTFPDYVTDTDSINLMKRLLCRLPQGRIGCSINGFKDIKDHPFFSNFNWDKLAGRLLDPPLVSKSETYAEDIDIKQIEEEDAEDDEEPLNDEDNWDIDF

3D7 PKG T618Q = assay: microbe, parasite or virus in culture; assay type: cell-based, Plasmodium falciparum; settings: Plasmodium falciparum, 3D7, 96 h, read-out: Parasite inhibition EC50, 3D7 PKG T618Q
PfHSP90 = PfHSP90 (Plasmodium falciparum, UniProt Q8IC05); assay: Tryptophan fluorescence binding, full-length PfHSP90
PfHSP90, sequence (Q8IC05 entry or part of it): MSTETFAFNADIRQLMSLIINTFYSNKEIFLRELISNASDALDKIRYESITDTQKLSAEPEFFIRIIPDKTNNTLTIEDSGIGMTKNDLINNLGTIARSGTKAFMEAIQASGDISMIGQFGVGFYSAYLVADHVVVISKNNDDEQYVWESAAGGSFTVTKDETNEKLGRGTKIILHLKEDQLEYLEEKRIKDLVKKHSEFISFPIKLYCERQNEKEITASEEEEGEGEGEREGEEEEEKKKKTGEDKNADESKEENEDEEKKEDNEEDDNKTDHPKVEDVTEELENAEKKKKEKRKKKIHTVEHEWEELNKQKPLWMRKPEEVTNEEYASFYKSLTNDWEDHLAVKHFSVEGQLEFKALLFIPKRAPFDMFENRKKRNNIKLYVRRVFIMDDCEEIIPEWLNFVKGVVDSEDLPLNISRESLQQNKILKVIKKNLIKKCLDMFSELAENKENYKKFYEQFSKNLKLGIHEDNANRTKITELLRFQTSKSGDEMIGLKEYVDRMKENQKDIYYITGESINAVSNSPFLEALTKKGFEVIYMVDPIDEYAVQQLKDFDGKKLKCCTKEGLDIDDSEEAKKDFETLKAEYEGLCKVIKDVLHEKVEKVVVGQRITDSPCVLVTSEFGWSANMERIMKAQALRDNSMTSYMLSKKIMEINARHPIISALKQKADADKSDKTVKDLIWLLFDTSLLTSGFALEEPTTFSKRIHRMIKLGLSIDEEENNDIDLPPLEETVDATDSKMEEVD
Method: (§1) The PCR product was cloned into pRSET-A (Life Technologies) between the BamHI and XhoI sites. Positive clones were confirmed by restriction digestion and sequencing. The clone was transformed into Escherichia coli Rosetta(pLysS) cells, and protein was expressed by induction with 0.1 mM isopropyl β-D-1-thiogalactopyranoside (IPTG) at 37°C for 2 h. PfHSP90 proteins were purified using Ni-nitrilotriacetic acid (NTA) affinity chromatography (Qiagen) as described in the manufacturer's protocol.
Tryptophan fluorescence analysis was performed using a PerkinElmer LS55 luminescence spectrometer. […] The binding buffer used for the reaction contained 50 mM Tris-HCl, pH 7.4, and 1 mM EDTA. Samples were excited at 280 nm, and tryptophan fluorescence measurements were carried out by scanning the emission spectrum in the wavelength range 300 to 400 nm. A maximum wavelength (λmax) of 346 nm was selected for all the calculations. The slit widths of excitation and emission were set at 2.5 and 5 nm, respectively. The difference in fluorescence intensity between protein alone and protein with various concentrations of 17-AAG or compound D was calculated and plotted against the different concentrations of the respective ligand used. The resultant hyperbolic curve was analyzed with GraphPad Prism software, using nonlinear regression analysis with single-site-specific binding as described previously ([32]).

PfHSP90-NTD = PfHSP90-NTD (Plasmodium falciparum, UniProt Q8IC05); assay: Tryptophan fluorescence binding, PfHSP90 N-terminal domain
PfHSP90-NTD, sequence (Q8IC05 entry or part of it): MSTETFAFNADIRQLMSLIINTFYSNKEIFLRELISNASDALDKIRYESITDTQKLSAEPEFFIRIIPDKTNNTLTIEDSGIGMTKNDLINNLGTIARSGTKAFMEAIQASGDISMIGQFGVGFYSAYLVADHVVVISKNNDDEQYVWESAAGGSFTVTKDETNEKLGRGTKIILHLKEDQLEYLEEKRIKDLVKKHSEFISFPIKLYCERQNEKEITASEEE
Excerpt: PfCDPK1 and PfCDPK1 T145G proteins were produced using methods described elsewhere ([23]). The PfHSP90 N-terminal domain (NTD) comprises the first 223 amino acids of PfHSP90. This region was amplified from the full-length PfHSP90-pRSET-A construct ([32]) using the following primers: primer 7, […]; primer 8, […].
as §1, with “PfHSP90 proteins were purified using Ni-nitrilotriacetic acid (NTA) affinity chromatography (Qiagen) as described in the manufacturer's protocol.” left out
Tryptophan fluorescence analysis was performed using a PerkinElmer LS55 luminescence spectrometer. […] Samples were excited at 280 nm, and tryptophan fluorescence measurements were carried out by scanning the emission spectrum in the wavelength range 300 to 400 nm. […] The difference in fluorescence intensity between protein alone and protein with various concentrations of 17-AAG or compound D was calculated and plotted against the different concentrations of the respective ligand used. The resultant hyperbolic curve was analyzed with GraphPad Prism software, using nonlinear regression analysis with single-site-specific binding as described previously ([32]).

trophozoite cell lysate = assay: Affinity purification of targets of biotinylated compound D, LC-MS/MS; assay type: binding, Plasmodium falciparum; settings: biotin linked to R1 group of compound D, streptavidin-agarose
Method: A total of 200 μl of high-capacity streptavidin agarose (Thermo Scientific) was resuspended in 1 ml of 250 μg/ml biotinylated compound D solution or a DMSO control. After incubation with mixing for 1 h at room temperature, unbound compound was removed by extensive washing with phosphate-buffered saline (PBS). The resin was incubated with trophozoite lysate containing 2 mg of protein in a total volume of 1.5 ml overnight at 4°C. The lysate was prepared by resuspending trophozoites in 20 mM Tris-HCl, pH 8.0, 10 mM MgCl2, 250 mM NaCl, 0.5 mM tris(2-carboxyethyl)phosphine (TCEP), 1× protein phosphatase inhibitor (Sigma-Aldrich), 1× complete protease inhibitors (Roche), and 0.1% Triton X-100 (Sigma-Aldrich). Insoluble proteins were removed by centrifugation at 15,000 × g for 20 min, and protein was quantitated using a detergent-compatible (DC) protein assay (Bio-Rad). […]
Proteins were run 4 mm into a 10% NuPAGE Bis-Tris gel (Life Technologies) and then excised using a clean scalpel blade. […] The resulting digests were analyzed by liquid chromatography-tandem mass spectrometry (LC-MS/MS) using an Ultimate 3000 nanoRSLC high-performance liquid chromatograph (HPLC), equipped with a 50-cm by 75-μm Acclaim Pepmap C18 column, coupled to a linear trap quadrupole (LTQ) Orbitrap Velos Pro equipped with a Nanoflex electrospray source (all Thermo Scientific). […]

P. falciparum 3D7 [2] = assay: Microscopic examination of Giemsa-stained smears (stage of action)
CDPK1 T145G = molecular target: T3, CDPK1 T145G (Plasmodium falciparum, UniProt P62344, T145G); assay: ParM ADP biosensor assay, CDPK1 T145G; assay type: biochemical
T3 construct: PfCDPK1 and PfCDPK1 T145G proteins were produced using methods described elsewhere; made in house
T3 sequence (P62344 whole entry T145G): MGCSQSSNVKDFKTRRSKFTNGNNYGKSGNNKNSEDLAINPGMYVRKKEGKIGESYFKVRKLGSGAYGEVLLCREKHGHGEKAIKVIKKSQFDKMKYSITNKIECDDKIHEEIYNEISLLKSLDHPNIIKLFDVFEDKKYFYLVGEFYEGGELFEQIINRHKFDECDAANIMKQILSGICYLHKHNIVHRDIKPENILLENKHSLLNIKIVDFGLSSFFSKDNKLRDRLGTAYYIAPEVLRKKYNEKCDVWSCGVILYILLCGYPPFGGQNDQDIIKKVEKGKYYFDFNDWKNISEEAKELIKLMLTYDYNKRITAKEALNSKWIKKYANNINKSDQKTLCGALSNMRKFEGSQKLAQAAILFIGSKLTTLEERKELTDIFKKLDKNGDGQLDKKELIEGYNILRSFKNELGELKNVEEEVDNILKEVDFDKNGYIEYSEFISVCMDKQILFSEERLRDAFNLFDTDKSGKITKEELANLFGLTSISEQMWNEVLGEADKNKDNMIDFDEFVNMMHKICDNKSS

3D7 CDPK1 T145T-HA = assay: SYBR green assay, 3D7 CDPK1 T145T-HA line; assay type: cell-based; settings: Plasmodium falciparum, 3D7, read-out: EC50, 3D7 CDPK1 T145T-HA
Method: (§2) Aliquots of 100 μl of P. falciparum cultures 24 h after erythrocyte invasion were transferred into 96-well culture dishes. Cells were incubated with inhibitors for 48 or 96 h (starting parasitemias were 0.3% and 0.03%, respectively). All drug treatments were carried out in duplicate at a final dimethyl sulfoxide (DMSO) concentration of 0.05%. After incubation, a modification of a previously described SYBR green assay was performed ([27]). Cells were lysed by the addition of 25 μl of buffer (20 mM Tris-HCl, pH 8.0, 2 mM EDTA, pH 8.0, 1.6% Triton X-100, 0.16% saponin, 10× SYBR green I [Life Technologies]). After incubation in the dark for 2 h, fluorescence of the samples was determined using a FLUOStar Omega plate reader (BMG Labtech) with excitation and emission filters of 485 nm and 520 nm, respectively. EC50s were calculated from a four-parameter logistical fit of the data using Prism software (GraphPad Software, Inc.).
(§3) Parasites expressing CDPK1 T145G and CDPK1 T145T were generated as described previously ([28]). Briefly, a region of homology to facilitate integration of the plasmid via single-crossover homologous recombination was amplified from P. falciparum 3D7 genomic DNA at 194 bp upstream of the ATG to bp 435 of the open reading frame using primers 1 and 2 for the wild-type (WT) version and primers 1 and 3 for the glycine version. […]

3D7 CDPK1 T145G-HA = assay: SYBR green assay, 3D7 CDPK1 T145G-HA line; assay type: cell-based; settings: Plasmodium falciparum, 3D7, read-out: EC50, 3D7 CDPK1 T145G-HA
Method: as §2, §3

WT CDPK1 = WT CDPK1 (Plasmodium falciparum, UniProt P62344); assay: biochemical
WT CDPK1, sequence (P62344 whole entry): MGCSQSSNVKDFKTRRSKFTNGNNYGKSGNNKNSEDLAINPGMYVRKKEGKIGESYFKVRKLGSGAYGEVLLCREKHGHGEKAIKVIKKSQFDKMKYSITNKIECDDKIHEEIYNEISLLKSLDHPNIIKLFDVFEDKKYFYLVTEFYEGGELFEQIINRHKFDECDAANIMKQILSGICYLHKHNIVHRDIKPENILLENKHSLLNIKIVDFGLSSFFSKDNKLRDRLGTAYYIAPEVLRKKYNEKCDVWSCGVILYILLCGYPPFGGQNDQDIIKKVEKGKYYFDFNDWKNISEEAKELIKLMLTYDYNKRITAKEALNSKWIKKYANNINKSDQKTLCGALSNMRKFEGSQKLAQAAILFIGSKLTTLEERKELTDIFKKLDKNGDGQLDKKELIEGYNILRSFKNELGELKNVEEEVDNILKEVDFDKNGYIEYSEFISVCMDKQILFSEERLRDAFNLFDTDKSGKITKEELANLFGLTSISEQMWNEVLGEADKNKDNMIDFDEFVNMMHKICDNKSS

Structure (SMILES)	EC50 (P. falciparum 3D7 [1]; 3D7, 48 h, Table S1, single experiment with duplicate samples, or mean of triplicate experiments (SD), read-out: EC50 48 hours) [nM]	EC50 (P. falciparum 3D7 [1]; 3D7, 96 h, Table S1, single experiment with duplicate samples, or mean of triplicate experiments (SD), read-out: EC50 96 hours) [nM]	EC50 (P. falciparum 3D7 [1]; 3D7, SYBR green I, 48 h incubation, mean of three independent experiments (SD), read-out: EC50 after treatment for 48 h) [nM]	EC50 (P. falciparum 3D7 [1]; 3D7, SYBR green I, 96 h incubation, mean of three independent experiments (SD), read-out: EC50 after treatment for 96 h) [nM]	EC50 (P. falciparum 3D7 [1]; 3D7, Table 2, SYBR green I, 96 h, single experiment, or mean (SD) of duplicate assays, read-out: Parasite inhibition EC50, 3D7) [nM]	IC50 (PfPKG) [nM]	IC50 (PfPKG T618Q) [nM]	EC50 (3D7 PKG T618Q) [nM]	Kd (PfHSP90) [nM]	Kd (PfHSP90-NTD) [nM]	Significant hit identified by LC-MS/MS (trophozoite cell lysate)	Stage of action (before or after DNA synthesis) (P. falciparum 3D7 [2]; Table S1, ring-stage parasites, 10x EC50 for 48 h)	Developmental arrest seen in smears (P. falciparum 3D7 [2]; parasites about 21 h after invasion, 48 h at 10 times the EC50 determined by FACS (compound C 0.3 μM, compound D 4 μM))	Stage of action (P. falciparum 3D7 [2]; ring stage parasites treated with 10 times the 96-h EC50 for 48 h)	IC50 (CDPK1 T145G) [nM]	Increase in sensitivity of CDPK1 T145G over wild-type enzyme (CDPK1 T145G; ratio of IC50s) [fold]	EC50 (3D7 CDPK1 T145T-HA) [nM]	EC50 (3D7 CDPK1 T145G-HA) [nM]	IC50 (WT CDPK1) [nM]
CC(C)CCNc1ccc(-c2cnc3ccc(NC4CCN(C)CC4)nn23)cn1 [Compound 7]	360	310	355	311	427	484	15500	477	6170	10700	HSP90	trophozoite	failed to develop beyond late rings/early trophozoites	Trophozoite	–	–	–	–	–
CC(C)(C)n1nc(-c2cccc3ccccc23)c2c(N)ncnc21 [NA-PP1, 1-(1,1-dimethylethyl)-3-(1-naphthalenyl)-1H-pyrazolo[3,4-d]pyrimidin-4-amine]	–	–	–	–	–	–	–	–	–	–	–	–	–	–	150	41	14300	15600	6010
